For orientation: IC50 means the point on the concentration scale where inhibition reaches its midpoint.

Results on 2 compounds are retold here after paper PMC5509001, “Structure Modeling of Human Tyrosyl-DNA Phosphodiesterase 1 and Screening for Its Inhibitors” (Acta Naturae, 2017).

Structures are written as SMILES.

This assay deals with T1, recombinant human Tdp1 (tyrosyl-DNA phosphodiesterase 1) (Homo sapiens, UniProt Q9NUW8).
T1 construct: recombinant from plasmid pET 16B Tdp1 in Escherichia coli
T1 sequence (Q9NUW8 whole entry): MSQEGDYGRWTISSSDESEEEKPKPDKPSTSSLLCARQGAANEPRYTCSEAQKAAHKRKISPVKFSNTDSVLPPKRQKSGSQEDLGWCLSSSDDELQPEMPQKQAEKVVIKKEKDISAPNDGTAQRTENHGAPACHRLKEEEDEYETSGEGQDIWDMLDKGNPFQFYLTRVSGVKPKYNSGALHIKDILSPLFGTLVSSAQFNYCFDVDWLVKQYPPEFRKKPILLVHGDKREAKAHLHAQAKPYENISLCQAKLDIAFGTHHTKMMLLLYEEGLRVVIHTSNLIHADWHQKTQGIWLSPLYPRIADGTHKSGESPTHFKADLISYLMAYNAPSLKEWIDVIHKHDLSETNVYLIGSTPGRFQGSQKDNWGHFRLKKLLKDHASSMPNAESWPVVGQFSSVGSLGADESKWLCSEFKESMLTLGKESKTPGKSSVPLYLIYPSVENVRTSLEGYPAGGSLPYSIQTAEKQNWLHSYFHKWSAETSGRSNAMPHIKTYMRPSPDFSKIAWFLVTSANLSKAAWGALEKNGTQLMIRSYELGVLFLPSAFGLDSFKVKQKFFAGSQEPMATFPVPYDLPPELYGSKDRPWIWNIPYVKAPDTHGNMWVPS
The assay can be described thus: real-time fluorescence biosensor (FAM-oligonucleotide-BHQ1) cleavage. The class given is biochemical. An excerpt: real-time fluorescence biosensor (FAM-oligonucleotide-BHQ1) cleavage on recombinant human Tdp1 (tyrosyl-DNA phosphodiesterase 1)

As to `O=S(=O)(O)CCSc1nc2ccccc2s1` [STK370528], the IC50 is 83 ± 24 µM.

Regarding `O=S(=O)(O)CCCSc1nc2ccccc2[nH]1` [STK376552], the IC50 came out at 686 ± 14 µM.
